Test results taken from patent US7799816B2, “Imidazolinylmethyl aryl sulfonamide” (Roche Palo Alto LLC, priority 2008, dated 2010).

Tests used:
[1] = test system: Female Yucatan Micro-Swine; experiment: Conscious pig model (IUP, MAP, HR); assay type: in vivo
Description: In general, IUP is the intraurethral pressure and is measured as the 2 minute mean from the first peak of the urethral response (FIG. 1). MAP is the mean arterial blood pressure and is measured as the average blood pressure during the 2 minute section where IUP is measured. The durability is the slope of the IUP response in mmHg/min and is calculated immediately after the 2 minute IUP response for 5 minutes (2-7 minutes post the first peak) for the top 3 doses.
Conscious Pig Materials and Methods
Sling Training: Female Yucatan Micro-Swine were trained to stay in a sling for up to 4 hours. Swine were exposed to progressively longer sling durations per IACUC sling-training guideline.
Surgical Instrumentation: Female Yucatan Micro-swine were instrumented with a telemetry device with both pressure and ECG monitoring capabilities (Data Sciences International St Paul Minn.). In addition, a Bardport low profile titanium VAP was placed subcutaneously for blood sampling. All devices were implanted by the surgical veterinarian at Roche Palo Alto. Briefly, the telemetry probe body was placed subcutaneously in the cervical region. The intra-arterial pressure catheter was advanced via the superficial cervical artery into the subclavian artery for blood pressure measurement. The ECG leads were placed intra-muscularly: one in the intercostal muscle between the T8-T10 regions on the left side, and the other in the intercostal muscles between the T1-T3 regions on the right side. The VAP was placed subcutaneously in the neck region, with the catheter advanced into the jugular vein. […]
Experiment: After the swine was fully awake and stable (usually approximately 1 hour post wake up), baseline blood pressure, IUP, and heart rate parameters were determined. […]
Data Generating and Analysis Systems: Cardiovascular readings were generated by the TL11M3-D70-PCP (Data Sciences International, St. Paul, Minn.) telemetry device and associated hardware. […] IUP was monitored by a solid state catheter connected to a TA6000 Polygraph (Data Sciences International, St. Paul, Minn.). […]

alpha-1A adrenoceptors = target: T1, alpha-1A adrenoceptors (Homo sapiens, UniProt P35348); experiment: alpha-1A adrenoceptor partial agonist activity (intrinsic activity and pEC50); assay type: biochemical
T1 sequence (P35348 1-466): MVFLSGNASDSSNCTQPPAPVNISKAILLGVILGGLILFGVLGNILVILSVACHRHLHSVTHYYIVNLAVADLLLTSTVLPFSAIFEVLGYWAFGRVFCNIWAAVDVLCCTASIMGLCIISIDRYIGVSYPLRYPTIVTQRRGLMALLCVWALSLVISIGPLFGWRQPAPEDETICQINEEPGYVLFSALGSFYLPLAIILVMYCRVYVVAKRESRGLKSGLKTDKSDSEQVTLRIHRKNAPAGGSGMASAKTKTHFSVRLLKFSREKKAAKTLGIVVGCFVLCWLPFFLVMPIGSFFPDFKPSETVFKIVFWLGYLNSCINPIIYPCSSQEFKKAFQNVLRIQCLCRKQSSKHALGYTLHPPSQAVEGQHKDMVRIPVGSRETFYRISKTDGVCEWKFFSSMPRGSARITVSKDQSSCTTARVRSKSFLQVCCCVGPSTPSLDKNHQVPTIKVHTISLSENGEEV

intrinsic activity, or efficacy, as a partial agonist (alpha-1A adrenoceptors; ideally between 0.35 to 0.60): 0.38
EC50 (alpha-1A adrenoceptors; read-out: affinity, or pEC50 value (converted)): 200 nM
Compound: CS(=O)(=O)Nc1cc(F)c(CC2=NCCN2)c(Br)c1Br [Formula I, N-[2,3-Dibromo-4-(4,5-dihydro-1H-imidazol-2-ylmethyl)-5-fluoro-phenyl]-methanesulfonamide]
maximum arterial blood pressure effect [1]: low maximum arterial blood pressure effect
selectivity for enhancement of intraurethral pressure (IUP) over blood pressure (MAP) [1]: selectivity for enhancement of intraurethral pressure (IUP) over blood pressure (MAP)
durability of IUP response over time ([1]; iv infusion, compared to analogue compound (FIG. 1b vs FIG. 1c)): unexpectedly increased durability of IUP response over time
